Measured values as given in ChEMBL document CHEMBL1155952, “4-Amino-6-arylamino-pyrimidine-5-carbaldehyde hydrazones as potent ErbB-2/EGFR dual kinase inhibitors” (Bioorg Med Chem Lett, 2008).

How the values were obtained:
SK-BR-3 = experiment: Antiproliferative activity against human SKBR3 cells overexpressing ErB2; assay type: functional, cell-based
[1] = Plasma concentration in Sprague-Dawley rat at 10 mg/kg, po administered in 0.5% hydroxypropyl methylcellulose after 0.5 hrs; assay type: ADME, organism-based; design: dose 10 mg/kg, route oral
[2] = Plasma concentration in Sprague-Dawley rat at 10 mg/kg, po administered in 0.5% hydroxypropyl methylcellulose after 2 hrs; assay type: ADME, organism-based; design: dose 10 mg/kg, route oral
[3] = biological target: T1, Receptor tyrosine-protein kinase erbB-2 (Homo sapiens, UniProt P04626); experiment: Inhibition of human ErB2 phosphorylation in human SKBR3 cells; assay type: cell-based, SK-BR-3
BT-474 = experiment: cells; settings: Homo sapiens
Description: Antiproliferative activity against human BT474 cells overexpressing ErB2

HeLa = experiment: Antiproliferative activity against human HeLa cells; assay type: functional, cell-based
NCI-N87 = experiment: Antiproliferative activity against human N87 cells overexpressing ErB2; assay type: functional, cell-based
[4] = biological target: Epidermal growth factor receptor (Homo sapiens, UniProt P00533); experiment: Inhibition of human EGFR expressed in SF9 cells
[5] = Plasma concentration in Sprague-Dawley rat at 10 mg/kg, po administered in 0.5% hydroxypropyl methylcellulose after 1 hr; assay type: ADME, organism-based; design: dose 10 mg/kg, route oral
[6] = biological target: RAF proto-oncogene serine/threonine-protein kinase (Homo sapiens) (UniProt P04049); experiment: Inhibition of c-Raf at 3 uM
[7] = biological target: T1, Receptor tyrosine-protein kinase erbB-2; experiment: Inhibition of human ErbB2
[8] = biological target: Tyrosine-protein kinase Lck (Homo sapiens) (UniProt P06239); experiment: Inhibition of LCK at 3 uM
[9] = Plasma concentration in Sprague-Dawley rat at 10 mg/kg, po administered in 10% solutol in D5W after 1 hr; assay type: ADME, organism-based; design: dose 10 mg/kg, route oral
[10] = Plasma concentration in Sprague-Dawley rat at 10 mg/kg, po administered in 10% solutol in D5W after 2 hrs; assay type: ADME, organism-based; design: dose 10 mg/kg, route oral
[11] = Plasma concentration in Sprague-Dawley rat at 10 mg/kg, po administered in 10% solutol in D5W after 0.5 hrs; assay type: ADME, organism-based; design: dose 10 mg/kg, route oral
[12] = Plasma concentration in Sprague-Dawley rat at 10 mg/kg, po administered in 10% solutol in D5W after 4 hrs; assay type: ADME, organism-based; design: dose 10 mg/kg, route oral

Epidermal growth factor receptor, sequence (P00533 whole entry): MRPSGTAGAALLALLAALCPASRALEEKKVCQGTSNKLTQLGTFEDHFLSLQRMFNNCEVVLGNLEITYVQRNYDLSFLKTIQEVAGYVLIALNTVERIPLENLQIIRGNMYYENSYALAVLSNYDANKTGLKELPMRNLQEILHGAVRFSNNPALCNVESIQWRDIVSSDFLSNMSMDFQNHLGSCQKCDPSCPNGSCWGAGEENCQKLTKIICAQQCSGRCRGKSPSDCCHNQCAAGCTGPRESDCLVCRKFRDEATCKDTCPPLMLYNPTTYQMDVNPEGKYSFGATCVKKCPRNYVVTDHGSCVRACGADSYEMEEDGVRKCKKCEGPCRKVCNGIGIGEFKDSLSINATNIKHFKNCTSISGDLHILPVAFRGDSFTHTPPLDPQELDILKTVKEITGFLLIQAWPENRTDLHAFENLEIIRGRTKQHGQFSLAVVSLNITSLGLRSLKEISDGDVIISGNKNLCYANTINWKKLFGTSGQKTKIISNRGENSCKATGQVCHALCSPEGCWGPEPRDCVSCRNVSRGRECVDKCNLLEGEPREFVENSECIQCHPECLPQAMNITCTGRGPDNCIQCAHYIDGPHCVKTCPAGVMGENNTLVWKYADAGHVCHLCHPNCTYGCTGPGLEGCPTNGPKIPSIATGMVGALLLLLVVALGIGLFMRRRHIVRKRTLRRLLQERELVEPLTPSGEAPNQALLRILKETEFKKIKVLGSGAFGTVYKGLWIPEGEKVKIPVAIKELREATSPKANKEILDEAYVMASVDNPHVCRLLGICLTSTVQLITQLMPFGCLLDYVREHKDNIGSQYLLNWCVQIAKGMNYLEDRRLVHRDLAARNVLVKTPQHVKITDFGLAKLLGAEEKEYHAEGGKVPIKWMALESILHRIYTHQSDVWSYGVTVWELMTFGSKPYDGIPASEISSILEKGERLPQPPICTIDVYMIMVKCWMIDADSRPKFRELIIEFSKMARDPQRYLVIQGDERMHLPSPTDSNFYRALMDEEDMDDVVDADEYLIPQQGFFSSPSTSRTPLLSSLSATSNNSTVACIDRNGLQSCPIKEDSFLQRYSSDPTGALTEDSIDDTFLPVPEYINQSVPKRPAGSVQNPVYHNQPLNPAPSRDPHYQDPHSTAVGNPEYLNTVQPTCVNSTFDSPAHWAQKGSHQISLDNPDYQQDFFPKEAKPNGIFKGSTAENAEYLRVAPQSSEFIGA
T1 sequence (P04626 whole entry): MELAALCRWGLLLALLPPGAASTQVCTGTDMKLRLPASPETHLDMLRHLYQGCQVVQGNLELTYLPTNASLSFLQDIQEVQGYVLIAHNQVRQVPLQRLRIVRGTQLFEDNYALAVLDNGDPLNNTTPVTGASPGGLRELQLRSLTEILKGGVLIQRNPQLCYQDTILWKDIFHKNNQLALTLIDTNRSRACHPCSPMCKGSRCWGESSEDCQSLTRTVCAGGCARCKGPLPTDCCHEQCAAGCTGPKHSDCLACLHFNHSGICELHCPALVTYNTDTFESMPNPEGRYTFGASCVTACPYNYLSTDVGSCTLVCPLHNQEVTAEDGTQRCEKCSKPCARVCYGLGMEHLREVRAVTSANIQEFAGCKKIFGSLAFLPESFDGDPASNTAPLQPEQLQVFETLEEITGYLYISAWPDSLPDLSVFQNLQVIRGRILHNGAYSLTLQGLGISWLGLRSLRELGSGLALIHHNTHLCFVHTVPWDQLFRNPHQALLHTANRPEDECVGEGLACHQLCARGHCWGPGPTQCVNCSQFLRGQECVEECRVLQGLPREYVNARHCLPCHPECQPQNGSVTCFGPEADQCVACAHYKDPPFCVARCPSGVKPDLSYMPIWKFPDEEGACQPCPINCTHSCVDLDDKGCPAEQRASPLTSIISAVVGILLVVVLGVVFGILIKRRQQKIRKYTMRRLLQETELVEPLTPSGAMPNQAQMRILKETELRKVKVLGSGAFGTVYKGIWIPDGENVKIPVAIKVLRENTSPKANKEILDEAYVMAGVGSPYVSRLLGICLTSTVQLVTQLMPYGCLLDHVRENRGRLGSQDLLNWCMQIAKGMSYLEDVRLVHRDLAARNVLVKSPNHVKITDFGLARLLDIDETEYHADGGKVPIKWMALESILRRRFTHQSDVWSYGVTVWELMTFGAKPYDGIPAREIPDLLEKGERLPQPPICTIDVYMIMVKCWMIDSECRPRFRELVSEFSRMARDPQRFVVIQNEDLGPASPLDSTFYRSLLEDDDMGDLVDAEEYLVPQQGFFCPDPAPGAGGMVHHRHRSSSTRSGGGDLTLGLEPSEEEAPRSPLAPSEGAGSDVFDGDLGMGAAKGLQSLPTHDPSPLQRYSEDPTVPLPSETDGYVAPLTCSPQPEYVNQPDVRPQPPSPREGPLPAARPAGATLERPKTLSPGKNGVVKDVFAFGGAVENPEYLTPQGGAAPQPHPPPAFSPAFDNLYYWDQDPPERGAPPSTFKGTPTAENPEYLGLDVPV
Tyrosine-protein kinase Lck (Homo sapiens), sequence (P06239 2-509 limits assumed): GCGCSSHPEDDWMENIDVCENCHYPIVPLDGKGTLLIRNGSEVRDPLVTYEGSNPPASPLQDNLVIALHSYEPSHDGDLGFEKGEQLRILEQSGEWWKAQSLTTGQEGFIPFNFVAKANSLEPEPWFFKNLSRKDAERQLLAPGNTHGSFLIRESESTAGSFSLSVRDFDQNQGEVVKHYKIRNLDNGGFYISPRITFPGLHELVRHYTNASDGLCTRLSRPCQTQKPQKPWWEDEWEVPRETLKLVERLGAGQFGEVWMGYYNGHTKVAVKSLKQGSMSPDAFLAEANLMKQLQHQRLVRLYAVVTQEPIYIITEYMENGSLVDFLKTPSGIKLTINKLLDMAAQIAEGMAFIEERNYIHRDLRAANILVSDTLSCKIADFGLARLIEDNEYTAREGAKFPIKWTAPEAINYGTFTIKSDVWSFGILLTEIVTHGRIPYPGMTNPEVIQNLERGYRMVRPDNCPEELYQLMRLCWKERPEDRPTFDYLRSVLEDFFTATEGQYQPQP
RAF proto-oncogene serine/threonine-protein kinase (Homo sapiens), sequence (P04049 whole entry): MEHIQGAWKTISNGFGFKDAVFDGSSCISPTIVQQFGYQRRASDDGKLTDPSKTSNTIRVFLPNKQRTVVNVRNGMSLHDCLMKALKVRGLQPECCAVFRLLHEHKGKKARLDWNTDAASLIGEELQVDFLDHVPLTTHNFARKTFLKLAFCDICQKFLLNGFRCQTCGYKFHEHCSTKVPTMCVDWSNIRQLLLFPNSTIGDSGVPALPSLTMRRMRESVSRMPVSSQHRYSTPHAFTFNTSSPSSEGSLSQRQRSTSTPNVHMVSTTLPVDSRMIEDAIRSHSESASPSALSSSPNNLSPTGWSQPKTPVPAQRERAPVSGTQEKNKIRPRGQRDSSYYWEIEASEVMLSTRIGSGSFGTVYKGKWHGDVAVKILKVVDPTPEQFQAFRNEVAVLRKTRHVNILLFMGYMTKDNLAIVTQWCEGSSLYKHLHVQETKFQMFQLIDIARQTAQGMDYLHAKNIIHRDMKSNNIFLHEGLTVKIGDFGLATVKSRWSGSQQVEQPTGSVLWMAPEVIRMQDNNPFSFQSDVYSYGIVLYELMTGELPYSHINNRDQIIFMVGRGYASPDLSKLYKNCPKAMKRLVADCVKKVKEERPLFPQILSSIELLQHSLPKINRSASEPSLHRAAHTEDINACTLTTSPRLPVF

For `Nc1ncnc(Nc2ccc3c(cnn3Cc3cccc(F)c3)c2)c1/C=N/N1CCOCC1`, the IC50 (SK-BR-3) was 122 nM, the concentration at 0.5 h [1] was 26.1 ng/mL and the concentration at 2 h [2] was 1.5 ng/mL. For the same compound, the IC50 [3] was 83 nM, the IC50 (BT-474) was 31 nM and the IC50 (HeLa) was > 100000 nM. It also gave an IC50 (NCI-N87) of 91 nM, an IC50 [4] of 16 nM and a concentration at 1 h [5] of 21.6 ng/mL. The inhibition [6] was 47%, the IC50 [7] was 7 nM and the inhibition [8] was 71%.
Compound `Nc1ncnc(Nc2ccc3c(cnn3Cc3cccc(F)c3)c2)c1/C=N/N1CCCCC1` has an IC50 (SK-BR-3) of 691 nM, a concentration at 0.5 h [1] of 23.4 ng/mL and a concentration at 2 h [2] of 32.4 ng/mL. For the same compound, the IC50 [3] was 148 nM, the IC50 (BT-474) was 49 nM and the IC50 (HeLa) was > 10000 nM. It also gave an IC50 (NCI-N87) of 365 nM, a concentration at 1 h [5] of 12.6 ng/mL and an inhibition [6] of 50%. For the same compound, the IC50 [7] was 18 nM and the inhibition [8] was 60%.
`COC[C@@H]1CCCN1/N=C/c1c(N)ncnc1Nc1ccc2c(cnn2Cc2cccc(F)c2)c1` showed an IC50 [3] of 426 nM, an IC50 [4] of 26 nM and an IC50 [7] of 39 nM.
For `CN1CCN(/N=C/c2c(N)ncnc2Nc2ccc3c(cnn3Cc3cccc(F)c3)c2)CC1`, the IC50 [3] was 509 nM, the IC50 [4] was 16 nM and the IC50 [7] was 8 nM.
For `CN/N=C/c1c(N)ncnc1Nc1ccc2c(cnn2Cc2cccc(F)c2)c1`, the IC50 [3] was 361 nM, the IC50 [4] was 12 nM and the IC50 [7] was 84 nM.
Compound `CN(C)/N=C/c1c(N)ncnc1Nc1ccc2c(cnn2Cc2cccc(F)c2)c1` has an IC50 (SK-BR-3) of 148 nM, an IC50 [3] of 105 nM and an IC50 (BT-474) of 63 nM. The IC50 (HeLa) was > 100000 nM, the IC50 (NCI-N87) was 131 nM and the concentration at 1 h [9] was 6.3 ng/mL. The IC50 [4] was 8 nM, the concentration at 2 h [10] was 13.2 ng/mL and the concentration at 0.5 h [11] was 10.1 ng/mL. The IC50 [7] was 2 nM and the concentration at 4 h [12] was 4.6 ng/mL.
For `COC[C@H]1CCCN1/N=C/c1c(N)ncnc1Nc1ccc2c(cnn2Cc2cccc(F)c2)c1`, the IC50 [4] was 31 nM and the IC50 [7] was 72 nM.
`COc1ccc(/N=C/c2c(N)ncnc2Nc2ccc3c(cnn3Cc3cccc(F)c3)c2)cc1` gave an IC50 [3] of 1290 nM, an IC50 [4] of 49 nM and an IC50 [7] of 118 nM.
Compound `Nc1ncnc(Nc2ccc3c(cnn3Cc3cccc(F)c3)c2)c1/C=N/NCC(F)(F)F` has an IC50 [3] of 258 nM, an IC50 [4] of 52 nM and an IC50 [7] of 20 nM.
`Nc1ncnc(Nc2ccc3c(cnn3Cc3cccc(F)c3)c2)c1/C=N/N1CCN(CCO)CC1` showed an IC50 (SK-BR-3) of 58 nM, an IC50 [3] of 54 nM and an IC50 (BT-474) of 14 nM. The IC50 (HeLa) was > 100000 nM, the IC50 (NCI-N87) was 58 nM and the IC50 [4] was 9 nM. It also gave an IC50 [7] of 8 nM.
